Measured values from patent US7368567B2, “Arylsulfonyl benzodioxanes, benzoxazines and benzothiazines as 5-HT6 antagonists” (Roche Palo Alto LLC, priority 2004, dated 2008).

Row | melting point [°C] | SMILES
1 | 215.4 to 217.2 | O=S(=O)(c1cccc(F)c1)c1ccc2c(c1)O[C@H](CN1CC1)CO2 (stereo in doubt)
2 | 195.1 to 197.1 | O=S(=O)(c1cccc(F)c1)c1ccc2c(c1)O[C@@H](CNCc1ccccc1)CO2 (stereo in doubt) [Compound 11, Benzyl-[7-(3-fluoro-benzenesulfonyl)-2,3-dihydro-benzo[1,4]dioxin-2-ylmethyl]-amine]
3 | 100.8 to 108.3 | O=S(=O)(c1cccc(F)c1)c1ccc2c(c1)O[C@H](CN1CCC1)CO2 (stereo in doubt) [Compound 16, 1-[7-(3-Fluoro-benzenesulfonyl)-2,3-dihydro-benzo[1,4]dioxin-2-ylmethyl]-azetidine]
4 | 193 to 196.9 | COCCNC[C@@H]1COc2ccc(S(=O)(=O)c3cccc(F)c3)cc2O1 (stereo in doubt) [Compound 17, [7-(3-Fluoro-benzenesulfonyl)-2,3-dihydro-benzo[1,4]dioxin-2-ylmethyl]-(2-methoxy-ethyl)-amine]
5 | 198 to 199.4 | CNCC1COc2ccc(S(=O)(=O)c3ccccc3)cc2O1 (racemic) [Compound 1, (+−)-(7-Benzenesulfonyl-2,3-dihydro-benzo[1,4]dioxin-2-ylmethyl)-methyl-amine]
6 | 247.5 to 251.3 | CCNC[C@@H]1COc2ccc(S(=O)(=O)c3cccc(F)c3)cc2O1 (stereo in doubt) [Compound 13, Ethyl-[7-(3-fluoro-benzenesulfonyl)-2,3-dihydro-benzo[1,4]dioxin-2-ylmethyl]-amine]
7 | 242.4 to 243.8 | CC(C)NC[C@@H]1COc2ccc(S(=O)(=O)c3cccc(F)c3)cc2O1 (stereo in doubt) [Compound 15, [7-(3-Fluoro-benzenesulfonyl)-2,3-dihydro-benzo[1,4]dioxin-2-ylmethyl]-isopropyl-amine]
8 | 224.9 to 227.9 | NC[C@H]1COc2ccc(S(=O)(=O)c3cccc(F)c3)cc2O1 [Compound 9, C-[7-(3-Fluoro-benzenesulfonyl)-2,3-dihydro-benzo[1,4]dioxin-2-(S)-yl]-methylamine]
9 | 99.9 to 106.1 | CNC[C@@H]1COc2ccc(S(=O)(=O)c3cccc(C)c3)cc2O1 (stereo in doubt) [Compound 28, Methyl-[7-(toluene-3-sulfonyl)-2,3-dihydro-benzo[1,4]dioxin-2-ylmethyl]-amine]
10 | 228.7 to 231.3 | CN(C)C[C@@H]1COc2ccc(S(=O)(=O)c3cccc(F)c3)cc2O1 (stereo in doubt) [Compound 14, [7-(3-Fluoro-benzenesulfonyl)-2,3-dihydro-benzo[1,4]dioxin-2-ylmethyl]-dimethyl-amine]
11 | 240 to 243.6 | CNC[C@H]1COc2ccc(S(=O)(=O)c3ccccc3)cc2O1 [Compound 2, (7-Benzenesulfonyl-2,3-dihydro-benzo[1,4]dioxin-2--(S)-ylmethyl)-methyl-amine]
12 | 169 to 170.8 | CNC[C@@H]1COc2ccc(S(=O)(=O)c3ccccc3C)cc2O1 (stereo in doubt) [Compound 29, Methyl-[7-(toluene-2-sulfonyl)-2,3-dihydro-benzo[1,4]dioxin-2-ylmethyl]-amine]
13 | 250.1 to 254.3 | CNC[C@@H]1COc2ccc(S(=O)(=O)c3cccc(F)c3)cc2O1 [Compound 8, [7-(3-Fluoro-benzenesulfonyl)-2,3-dihydro-benzo[1,4]dioxin-2-(R)-ylmethyl]-methyl-amine]
14 | 232 to 233.5 | CN(C)C[C@H]1COc2ccc(S(=O)(=O)c3ccccc3)cc2O1 (stereo in doubt) [Compound 23, (7-Benzenesulfonyl-2,3-dihydro-benzo[1,4]dioxin-2-ylmethyl)-dimethyl-amine]
15 | 190.6 to 192.1 | CNC[C@H]1COc2ccc(S(=O)(=O)c3cccc(C#N)c3)cc2O1 (stereo in doubt) [Compound 38, 3-(3-Methylaminomethyl-2,3-dihydro-benzo[1,4]dioxine-6-sulfonyl)-benzonitrile]

The remaining lines, values behind:

Row | SMILES | melting point [°C]
16 | O=S(=O)(c1ccccc1)c1ccc2c(c1)O[C@@H](CN1CCC(O)C1)CO2 (stereo in doubt) [Compound 37, 1-(7-Benzenesulfonyl-2,3-dihydro-benzo[1,4]dioxin-2-ylmethyl)-pyrrolidin-3-ol] | 94.7 to 96.4
17 | CCNC[C@H]1COc2ccc(S(=O)(=O)c3ccccc3)cc2O1 (stereo in doubt) [Compound 27, (7-Benzenesulfonyl-2,3-dihydro-benzo[1,4]dioxin-2-ylmethyl)-ethyl-amine] | 242.2 to 246.7
18 | O=S(=O)(c1ccccc1)c1ccc2c(c1)O[C@@H](CNCc1ccccc1)CO2 (stereo in doubt) [Compound 21, (7-Benzenesulfonyl-2,3-dihydro-benzo[1,4]dioxin-2-ylmethyl)-benzyl-amine] | 220.9 to 224.9
19 | CNC[C@H]1COc2ccc(S(=O)(=O)c3ccc(C)cc3)cc2O1 (stereo in doubt) [Compound 12, Methyl-[7-(toluene-4-sulfonyl)-2,3-dihydro-benzo[1,4]dioxin-2-ylmethyl]-amine] | 213 to 214.1
20 | O=S(=O)(c1ccccc1)c1ccc2c(c1)O[C@H](CN1CCCC1)CO2 [Compound 10, 1-(7-Benzenesulfonyl-2,3-dihydro-benzol[1,4]dioxin-2-(R)-ylmethyl)-pyrrolidine] | 75.8 to 112.7
21 | CNC[C@@H]1COc2cc(S(=O)(=O)c3ccccc3)ccc2O1 [Compound 4, (6-Benzenesulfonyl-2,3-dihydro-benzo[1,4]dioxin-2-(R)-ylmethyl)-methyl-amine] | 219.7 to 225.4
22 | N=C(N)NC[C@H]1COc2ccc(S(=O)(=O)c3ccccc3)cc2O1 (stereo in doubt) [Compound 31, N-(7-Benzenesulfonyl-2,3-dihydro-benzo[1,4]dioxin-2-ylmethyl)-guanidine] | 126.5 to 128.3
23 | CNC[C@H]1COc2cc(S(=O)(=O)c3ccccc3)ccc2O1 [Compound 5, (6-Benzenesulfonyl-2,3-dihydro-benzo[1,4]dioxin-2-(S)-ylmethyl)-methyl-amine] | 218.2 to 220.5
24 | CC(C)NC[C@H]1COc2ccc(S(=O)(=O)c3ccccc3)cc2O1 (stereo in doubt) [Compound 24, (7-Benzenesulfonyl-2,3-dihydro-benzo[1,4]dioxin-2-ylmethyl)-isopropyl-amine] | 224.9 to 228.8
25 | NC(=O)NC[C@H]1COc2ccc(S(=O)(=O)c3ccccc3)cc2O1 (stereo in doubt) [Compound 40, (7-Benzenesulfonyl-2,3-dihydro-benzo[1,4]dioxin-2-ylmethyl)-urea] | 104.9 to 105.7
26 | O=S(=O)(c1ccccc1)c1ccc2c(c1)O[C@@H](Cn1ccnc1)CO2 (stereo in doubt) [Compound 34, 1-(7-Benzenesulfonyl-2,3-dihydro-benzo[1,4]dioxin-2-ylmethyl)-1H-imidazole] | 88 to 90
27 | O=S(=O)(c1ccccc1)c1ccc2c(c1)O[C@@H](CN1CC1)CO2 (stereo in doubt) | 203.9 to 206.6
28 | COCCNC[C@H]1COc2ccc(S(=O)(=O)c3ccccc3)cc2O1 (stereo in doubt) [Compound 26, (7-Benzenesulfonyl-2,3-dihydro-benzo[1,4]dioxin-2-ylmethyl)-(2-methoxy-ethyl)-amine] | 169.3 to 171.9
